Bounds are passed on as bounds.

The target in this assay is CFTR-mediated chloride transport (Homo sapiens, UniProt P13569). In kind it is cell-based. The conditions noted are these: enteroid cells incubated with test compound 18-24 hours, acute 10 μM forskolin and 300 nM Compound III; for Max. Activity: % of chloride transport with 3 μM Compound A, 3 μM Compound II and 300 nM acute Compound III triple combination control. The method, then:
Base medium (ADF+++) consisted of Advanced DMEM/Ham's F12, 2 mM Glutamax, 10 mM HEPES, […] penicillin/streptomycin.
Intestinal enteroid maintenance medium (IEMM) consisted of ADF+++, 1× B27 supplement, 1× N2 supplement, 1.25 mM N-acetyl cysteine, 10 mM Nicotinamide, 50 ng/mL hEGF, 10 nM Gastrin, 1 μg/mL hR-spondin-1, 100 ng/mL hNoggin, TGF-b type 1 inhibitor A-83-01, 100 μg/mL Primocin, 10 μM P38 MAPK inhibitor SB202190.
Bath 1 Buffer consisted of 1 mM MgCl2, 160 mM NaCl, 4.5 mM KCl, 10 mM HEPES, 10 mM Glucose, 2 mM CaCl2).
Chloride Free Buffer consisted of 1 mM Magnesium Gluconate, 2 mM Calcium Gluconate, 4.5 mM Potassium Gluconate, 160 mM Sodium Gluconate, 10 mM HEPES, 10 mM Glucose.
Bath1 Dye Solution consisted of Bath 1 Buffer, 0.04% Pluronic F127, 20 μM Methyl Oxonol, 30 μM CaCCinh-A01, 30 μM Chicago Sky Blue.
Chloride Free Dye Solution consisted of Chloride Free Buffer, 0.04% Pluronic F127, 20 μM Methyl Oxonol, 30 μM CaCCinh-A01, 30 μM Chicago Sky Blue.
Chloride Free Dye Stimulation Solution consisted of Chloride Free Dye Solution, 10 μM forskolin, 100 μM IBMX, and 300 nM Compound III.
Human intestinal epithelial enteroid cells were obtained from the Hubrecht Institute for Developmental Biology and Stem Cell Research, Utrecht, The Netherlands and expanded in T-Flasks as previously described (Dekkers J F, Wiegerinck C L, de Jonge H R, Bronsveld I, Janssens H M, de Winter-de Groot K M, Brandsma A M, de Jong N W M, Bijvelds M J C, Scholte B J, Nieuwenhuis E E S, van den Brink S, Clevers H, van der Ent C K, Middendorp S and M Beekman J M. A functional CFTR assay using primary cystic fibrosis intestinal organoids. Nat Med. 2013 July; 19(7):939-45).
Cells were recovered in cell recovery solution, collected by centrifugation at 650 rpm for 5 min at 4° C., resuspended in TryPLE and incubated for 5 min at 37° C. Cells were then collected by centrifugation at 650 rpm for 5 min at 4° C. and resuspended in IEMM containing 10 μM ROCK inhibitor (RI) (trans-4-[(1R)-1-aminoethyl]-N-4-pyridinylcyclohexanecarboxamide). The cell suspension was passed through a 40 μm cell strainer and resuspended at 1×10^6 cells/mL in IEMM containing 10 μM RI. Cells were seeded at 5000 cells/well into multi-well plates and incubated for overnight at 37° C., 95% humidity and 5% CO2 prior to assay.
Enteroid cells were incubated with test compound in IEMM for 18-24 hours at 37° C., 95% humidity and 5% CO2. Following compound incubations, a membrane potential dye assay was employed using a FLIPR Tetra to directly measure the potency and efficacy of the test compound on CFTR-mediated chloride transport following acute addition of 10 μM forskolin and 300 nM Compound III. Briefly, cells were washed 5 times in Bath 1 Buffer. Bath 1 Dye Solution was added and the cells were incubated for 25 min at room temperature. Following dye incubation, cells were washed 3 times in Chloride Free Dye Solution. Chloride transport was initiated by addition of Chloride Free Dye Stimulation Solution and the fluorescence signal was read for 15 min. The CFTR-mediated chloride transport for each condition was determined from the AUC of the fluorescence response to acute forskolin and 300 nM Compound III stimulation. Chloride transport was then expressed as a percentage of the chloride transport following treatment with 3 μM Compound A, 3 μM Compound II and 300 nM acute Compound III triple combination control (% Activity).

Sequence of CFTR-mediated chloride transport (P13569 whole entry, looked up): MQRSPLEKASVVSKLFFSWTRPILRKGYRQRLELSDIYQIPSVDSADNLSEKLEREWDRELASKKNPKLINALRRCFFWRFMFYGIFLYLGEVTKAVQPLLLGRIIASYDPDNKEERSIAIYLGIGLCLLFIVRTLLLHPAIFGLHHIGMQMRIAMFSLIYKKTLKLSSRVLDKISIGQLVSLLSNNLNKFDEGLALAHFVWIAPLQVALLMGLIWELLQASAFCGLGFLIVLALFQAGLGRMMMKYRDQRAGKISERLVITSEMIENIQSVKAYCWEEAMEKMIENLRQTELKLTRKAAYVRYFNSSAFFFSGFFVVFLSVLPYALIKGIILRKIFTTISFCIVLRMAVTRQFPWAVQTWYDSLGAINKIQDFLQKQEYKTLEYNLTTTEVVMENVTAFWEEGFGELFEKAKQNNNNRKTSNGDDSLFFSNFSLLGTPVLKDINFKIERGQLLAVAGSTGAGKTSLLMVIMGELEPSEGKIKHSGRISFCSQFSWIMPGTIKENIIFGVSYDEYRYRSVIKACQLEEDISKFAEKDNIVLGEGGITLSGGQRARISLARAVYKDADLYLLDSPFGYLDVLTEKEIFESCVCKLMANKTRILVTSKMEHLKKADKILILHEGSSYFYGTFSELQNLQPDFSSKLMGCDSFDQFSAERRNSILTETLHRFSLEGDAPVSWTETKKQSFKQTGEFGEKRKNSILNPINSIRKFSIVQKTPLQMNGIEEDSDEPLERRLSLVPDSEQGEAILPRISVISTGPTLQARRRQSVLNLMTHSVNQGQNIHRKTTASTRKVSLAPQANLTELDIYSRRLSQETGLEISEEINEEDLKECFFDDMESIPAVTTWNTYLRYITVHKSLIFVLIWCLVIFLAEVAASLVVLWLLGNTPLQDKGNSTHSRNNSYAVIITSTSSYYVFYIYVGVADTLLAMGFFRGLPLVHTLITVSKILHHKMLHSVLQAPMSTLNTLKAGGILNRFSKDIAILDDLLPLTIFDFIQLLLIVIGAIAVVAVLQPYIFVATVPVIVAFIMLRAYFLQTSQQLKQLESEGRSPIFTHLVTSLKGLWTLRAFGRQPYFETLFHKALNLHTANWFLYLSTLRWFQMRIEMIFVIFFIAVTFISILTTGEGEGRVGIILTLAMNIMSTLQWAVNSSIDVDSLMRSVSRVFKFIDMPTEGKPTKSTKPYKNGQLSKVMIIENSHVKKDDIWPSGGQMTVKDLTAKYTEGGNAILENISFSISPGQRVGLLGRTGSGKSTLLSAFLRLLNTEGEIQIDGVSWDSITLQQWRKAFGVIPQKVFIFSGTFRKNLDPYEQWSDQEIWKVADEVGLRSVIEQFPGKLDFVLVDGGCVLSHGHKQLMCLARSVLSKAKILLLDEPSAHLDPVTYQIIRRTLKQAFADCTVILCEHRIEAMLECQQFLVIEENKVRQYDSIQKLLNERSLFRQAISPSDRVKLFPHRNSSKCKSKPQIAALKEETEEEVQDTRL

Regarding `CC1(CC2CCN(c3ccc4c(n3)N3C[C@@H](CCCNc5cccc(n5)S(=O)(=O)NC4=O)CC3(C)C)C2=O)CCCCC1` (stereo partly drawn) [Compound 101, (14S)-12,12-dimethyl-8-{3-[(1-methylcyclohexyl)methyl]-2-oxopyrrolidin-1-yl}-2λ^6-thia-3,9,11,18,23-pentaazatetracyclo[17.3.1.111,14.05,10]tetracosa-1(22),5,7,9,19(23),20-hexaene-2,2,4-trione], the half-maximal effective concentration (EC50) – broadly, the concentration at which the effect is half-maximal – was less than 1 µM and the “Max. Activity” value is “++ (++ is 30-60%)”.
On to `CC1(C)CC[C@H]2CCNc3cccc(n3)S(=O)(=O)NC(=O)c3ccc(-n4ccc(OCCC5(C(F)(F)F)CC5)n4)nc3N21` (single isomer, unassigned) [Compound 117, 8,8-dimethyl-12-(3-{2-[1-(trifluoromethyl)cyclopropyl]ethoxy}-1H-pyrazol-1-yl)-18λ^6-thia-2,9,11,17,23-pentaazatetracyclo[17.3.1.05,9.010,15]tricosa-1(23),10(15),11,13,19,21-hexaene-16,18,18-trione], for which the EC50 was less than 1 µM and the “Max. Activity” value was “++ (++ is 30-60%)”.
The matching figures for `CC1(C)C[C@@H]2CN1c1nc(-n3ccc(OCCC4C5(CC5)C45CC5)n3)ccc1C(=O)NS(=O)(=O)c1cccc(n1)NCC(F)(F)C2` (single isomer, unassigned) [Compound 305, 8-[3-(2-{Dispiro[2.0.2.1]heptan-7-yl}ethoxy)-1H-pyrazol-1-yl]-16,16-difluoro-12,12-dimethyl-2λ^6-thia-3,9,11,18,23-pentaazatetracyclo[17.3.1.111,14.05,10]tetracosa-1(22),5,7,9,19(23),20-hexaene-2,2,4-trione]: greater than 3 µM and “+ (+ is <30%)”.
The matching figures for `Cc1c2cnn1CCCC1CN(c3nc(-n4ccc(OCC(C)(C)C(F)(F)F)n4)ccc3C(=O)NS2(=O)=O)C(C)(C)C1` (single isomer, unassigned) [Compound 286, 20,20,22-trimethyl-4-[3-(3,3,3-trifluoro-2,2-dimethylpropoxy)-1H-pyrazol-1-yl]-10λ^6-thia-1,3,9,13,14-pentaazatetracyclo[16.2.1.111,14.02,7]docosa-2,4,6,11(22),12-pentaene-8,10,10-trione]: less than 1 µM and “+ (+ is <30%)”.
The matching figures for `CC1(C)C[C@@H]2CN1c1nc(-n3ccc(OCCC4(C(F)(F)F)CC4)n3)ccc1C(=O)NS(=O)(=O)c1cccc(n1)NCCO2` (single isomer, unassigned) [Compound 74, 12,12-Dimethyl-8-(3-{2-[1-(trifluoromethyl)cyclopropyl]ethoxy}-1H-pyrazol-1-yl)-15-oxa-2λ^6-thia-3,9,11,18,23-pentaazatetracyclo[17.3.1.111,14.05,10]tetracosa-1(22),5(10),6,8,19(23),20-hexaene-2,2,4-trione]: 1 to 3 µM and “+ (+ is <30%)”.
On to `CC1CCC2CN(c3nc(-n4ccc(OCCC5(C(F)(F)F)CC5)n4)ccc3C(=O)NS(=O)(=O)c3cccc(n3)N1)C(C)(C)C2` (stereo not drawn) [Compound 35, 12,12,17-trimethyl-8-(3-{2-[1-(trifluoromethyl)cyclopropyl]ethoxy}-1H-pyrazol-1-yl)-2λ^6-thia-3,9,11,18,23-pentaazatetracyclo[17.3.1.111,14.05,10]tetracosa-1(23),5(10),6,8,19,21-hexaene-2,2,4-trione], for which the EC50 was less than 1 µM and the “Max. Activity” value was “+++ (+++ is >60%)”.
In the case of `CC1(C)C[C@@H]2CCCNc3cccc(n3)S(=O)(=O)NC(=O)c3ccc(N4CC[C@H](OCCCC5(C(F)(F)F)CC5)C4=O)nc3N1C2` (single isomer, unassigned) [Compound 243], the EC50 is less than 1 µM and the “Max. Activity” value is given as “+++ (+++ is >60%)”.
With `CC1(C)C[C@H]2CCCNc3cccc(n3)S(=O)(=O)NC(=O)c3ccc(-n4ccc(OCC5(C(F)(F)F)CC5)n4)nc3N1C2` (single isomer, unassigned) [Compound 22, 12,12-dimethyl-8-(3-{[1-(trifluoromethyl)cyclopropyl]methoxy}-1H-pyrazol-1-yl)-2λ^6-thia-3,9,11,18,23-pentaazatetracyclo[17.3.1.111,14.05,10]tetracosa-1(23),5(10),6,8,19,21-hexaene-2,2,4-trione], the EC50 was less than 1 µM and the “Max. Activity” value is recorded as “+++ (+++ is >60%)”.
The matching figures for `CC1(C)C[C@@H]2CCCNc3cccc(n3)S(=O)(=O)NC(=O)c3ccc(N4CC[C@H](OCCC5(C(F)(F)F)CC5)C4=O)nc3N1C2` (single isomer, unassigned) [Compound 172]: less than 1 µM and “++ (++ is 30-60%)”.
The matching figures for `CC1(C)C[C@H]2CCCCNc3ccc(cn3)S(=O)(=O)NC(=O)c3ccc(-n4ccc(OCCC5(C(F)(F)F)CC5)n4)nc3N1C2` (single isomer, unassigned) [Compound 68, 12,12-dimethyl-8-(3-{2-[1-(trifluoromethyl)cyclopropyl]ethoxy}-1H-pyrazol-1-yl)-2λ^6-thia-3,9,11,19,21-pentaazatetracyclo[18.2.2.111,14.05,10]pentacosa-1(23),5,7,9,20(24),21-hexaene-2,2,4-trione]: less than 1 µM and “++ (++ is 30-60%)”.
Take `CC(C)(C)CCCO[C@H]1CCN(c2ccc3c(n2)N2C[C@@H](CCCNc4cccc(n4)S(=O)(=O)NC3=O)CC2(C)C)C1=O` (single isomer, unassigned) [Compound 247]: the EC50 was less than 1 µM and the “Max. Activity” value is “+++ (+++ is >60%)”.
For `CC1(C)C[C@H]2CCCn3ccc(n3)S(=O)(=O)NC(=O)c3ccc(-n4ccc(OCCC(C5CC5)C5CC5)n4)nc3N1C2` (single isomer, unassigned) [Compound 153, 4-[3-(3,3-dicyclopropylpropoxy)-1H-pyrazol-1-yl]-20,20-dimethyl-10λ^6-thia-1,3,9,14,22-pentaazatetracyclo[16.2.1.111,14.02,7]docosa-2,4,6,11(22),12-pentaene-8,10,10-trione], the EC50 was greater than 3 µM and the “Max. Activity” value is on record as “+ (+ is <30%)”.
The matching figures for `CC1(C)CCC(CN2CCN(c3ccc4c(n3)N3C[C@@H](CCCNc5cccc(n5)S(=O)(=O)NC4=O)CC3(C)C)C2=O)CC1` [Compound 217, (14S)-8-{3-[(4,4-Dimethylcyclohexyl)methyl]-2-oxoimidazolidin-1-yl}-12,12-dimethyl-2λ^6-thia-3,9,11,18,23-pentaazatetracyclo[17.3.1.111,14.05,10]tetracosa-1(22),5,7,9,19(23),20-hexaene-2,2,4-trione]: less than 1 µM and “++ (++ is 30-60%)”.
The matching figures for `CC(C)(C)CCC[C@H]1CCN(c2ccc3c(n2)N2C[C@@H](CCCNc4cccc(n4)S(=O)(=O)NC3=O)CC2(C)C)C1=O` (single isomer, unassigned) [Compound 145]: less than 1 µM and “+++ (+++ is >60%)”.
The matching figures for `CN1CCC[C@H]2CN(c3nc(-n4ccc(OCCC5(C(F)(F)F)CC5)n4)ccc3C(=O)NS(=O)(=O)c3cccc1n3)C(C)(C)C2` (single isomer, unassigned) [Compound 139, 12,12,18-trimethyl-8-(3-{2-[1-(trifluoromethyl)cyclopropyl]ethoxy}-1H-pyrazol-1-yl)-2λ^6-thia-3,9,11,18,23-pentaazatetracyclo[17.3.1.111,14.05,10]tetracosa-1(23),5(10),6,8,19,21-hexaene-2,2,4-trione]: less than 1 µM and “+++ (+++ is >60%)”.

(Values after patent US11866450B2, “Modulators of Cystic Fibrosis Transmembrane Conductance regulator, pharmaceutical compositions, methods of treatment, and process for making the modulators” (priority 2018, dated 2024).)
